What all share (experiment): NCI anticancer screen, dose series, 48 h
Experiment [1] concerns 786-0.
The subject of experiment [2] is A549.
In experiment [3] the test system is COLO 205.
The test system of experiment [4] is EKVX.
The test system of experiment [5] is HL-60.
In experiment [6] the test system is HT-29.
Experiment [7] concerns KM12.
For experiment [8], the system named is LXFL 529.
In experiment [9] the test system is M19-MEL.
For experiment [10], the system named is OVCAR-8.
Experiment [11] relates to RPMI-8226.
The test system of experiment [12] is SF-268.
Experiment [13] concerns SF-539.
The test system of experiment [14] is SN12C.
In experiment [15] the test system is SNB-78.
Experiment [16] has as its system UO-31.
The subject of experiment [17] is MDA-MB-231.
Experiment [18] has as its system MDA-MB-435.
For experiment [19], the system named is T47D.

Counter-ions that a name gives are not always drawn.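 Assay format: 96-well plates, 48-hour exposure. Abbreviation: GI50, concentration required for 50% inhibition of growth.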 The source made the active and inactive calls. No stated cut-off is given here; in the data, active = GI50 up to about 1.1 µM and inactive = higher. Where only a bound is given, the exact number is not on record here.

As to `C[C@H](O)CCC(=O)c1ccoc1`, the GI50 in experiment [1], in experiment [2], in experiment [3], in experiment [4], in experiment [5] and in [6] was > 100 µM (inactive) in each case. The GI50 in experiment [7], in experiment [8], in experiment [9], in experiment [10], in [11] and in experiment [12] was > 100 µM (inactive) each time. Further, the GI50 in experiment [13], in experiment [14], in [15] and in experiment [16] was > 100 µM (inactive) in each case.
As to `O=C1C(CN2CCOCC2)CCCC1CN1CCOCC1` (stereo not given), the GI50 was 1.16 µM (inactive) in [1]; 24.1 µM (inactive) in experiment [2]; 3.1 µM (inactive) in experiment [3]; 4.23 µM (inactive) in [4]; 0.787 µM (active) in experiment [5]; 1.76 µM (inactive) in experiment [6]. In addition, the GI50 in experiment [7] is 5.98 µM (inactive); in experiment [8], 1.53 µM (inactive); in experiment [9] it was 7.11 µM (inactive); in experiment [17] it was 5.97 µM (inactive); in experiment [18], 14.4 µM (inactive); in [10], 3.41 µM (inactive). The GI50 in experiment [11] is 0.296 µM (active); in experiment [12], 9.77 µM (inactive); in experiment [13], 3.92 µM (inactive); in experiment [14] it was 4.01 µM (inactive); in [15], 2.35 µM (inactive); in [19], 1.13 µM (inactive). In experiment [16], the GI50 was 9.73 µM (inactive).
On to `NC(=S)N1N=C2c3ccccc3CC[C@@H]2[C@@H]1c1ccccc1`, for which the GI50 in experiment [1] was 6.89 µM (inactive); in experiment [2], 8.59 µM (inactive); in experiment [3], 3.72 µM (inactive); in experiment [4], 16.3 µM (inactive); in [5], 2.86 µM (inactive); in experiment [6], 3.15 µM (inactive). In addition, the GI50 in experiment [7] is 4.27 µM (inactive); in experiment [8], 8.18 µM (inactive); in experiment [9], 4.97 µM (inactive); in experiment [10] it was 9.75 µM (inactive); in [11], 5.61 µM (inactive); in [12], 10.2 µM (inactive). Further, the GI50 in experiment [13] is 4.88 µM (inactive); in experiment [14], 5.05 µM (inactive); in experiment [15] it was 28.1 µM (inactive); in experiment [16] it was 14.2 µM (inactive).
Consider `Cc1c(-c2coc(-c3ccc([N+](=O)[O-])cc3)n2)c(=O)n(-c2ccccc2)n1C`, for which the GI50 in experiment [1], in experiment [2], in experiment [3], in [4], in experiment [5] and in experiment [6] was > 100 µM (inactive) in each case. In addition, the GI50 in experiment [7], in experiment [8], in [9], in experiment [10], in [11] and in experiment [12] was > 100 µM (inactive) in each case. In addition, the GI50 in experiment [13], in [14], in [15] and in experiment [16] was > 100 µM (inactive) each time.
Regarding `CC(=O)O[C@H]1CCC2[C@@H]3CCC4Cc5nc6c(nc5C[C@]4(C)C3CC[C@@]21C)CC1CC[C@@H]2C(CC[C@@]3(C)C2CC[C@@H]3C(C)CCCC(C)C)[C@@]1(C)C6` (stereo not given in full), the GI50 in experiment [1], in experiment [2], in [3], in [4], in experiment [5] and in experiment [6] was > 100 µM (inactive) in each case. Besides, the GI50 in experiment [7], in experiment [17], in [18], in experiment [10], in [11] and in experiment [12] was > 100 µM (inactive) each time. The GI50 in experiment [13], in [14], in [19] and in [16] was > 100 µM (inactive) throughout.
Regarding `O=C1C2C=CC(n3[nH]c(=O)n(Cc4ccccc4)c3=O)CC2C(=O)N1c1ccc(Br)cc1` (stereo not given), the GI50 in experiment [1], in [2], in experiment [3], in [4], in [5] and in experiment [6] was > 100 µM (inactive) throughout. Besides, the GI50 in experiment [7], in [8], in experiment [9], in experiment [10], in experiment [11] and in [12] was > 100 µM (inactive) in each case. The GI50 in experiment [13], in experiment [14], in experiment [15] and in experiment [16] was > 100 µM (inactive) in each case.
For the molecule `O=C(O)CCCN/C(=C1\C(=O)C(=O)N(c2ccccc2)C1=O)c1ccccc1`, the GI50 in experiment [1], in experiment [2], in experiment [3], in [4], in experiment [5] and in [6] was > 100 µM (inactive) in each case. In addition, the GI50 in [7], in experiment [17], in experiment [18], in [10], in experiment [11] and in experiment [12] was > 100 µM (inactive) throughout. The GI50 was 82 µM (inactive) in experiment [13], > 100 µM (inactive) in experiment [14], > 100 µM (inactive) in experiment [19] and > 100 µM (inactive) in [16].
Regarding `COC(=O)c1nc(NC#N)nc(O)c1C`, the GI50 in experiment [1] is > 100 µM (inactive); in experiment [2], > 89.5 µM (inactive); in experiment [3] it was > 100 µM (inactive); in experiment [4] it was > 100 µM (inactive); in [5] it was > 100 µM (inactive); in experiment [6], > 100 µM (inactive). For the same molecule, the GI50 was > 100 µM (inactive) in experiment [7]; > 64.9 µM (inactive) in experiment [8]; > 100 µM (inactive) in experiment [9]; > 100 µM (inactive) in experiment [10]; 98.9 µM (inactive) in experiment [11]; > 78.9 µM (inactive) in experiment [12]. For the same molecule, the GI50 in experiment [13] is > 55.8 µM (inactive); in experiment [14], > 100 µM (inactive); in [15], > 60.5 µM (inactive); in [16], > 51.8 µM (inactive).
`N#CC(C(=O)CCC(=O)Nc1ccc(Cl)c(Cl)c1)c1ccc(Cl)cc1` (stereo not given): the GI50 in [1] was > 100 µM (inactive); in experiment [2] it was 84.9 µM (inactive); in experiment [4], > 100 µM (inactive); in experiment [5] it was 83.9 µM (inactive); in experiment [6] it was > 100 µM (inactive); in experiment [7], 47.5 µM (inactive). In addition, the GI50 is 21.3 µM (inactive) in [8]; 82.2 µM (inactive) in experiment [9]; > 100 µM (inactive) in [10]; 48.2 µM (inactive) in [11]; > 100 µM (inactive) in experiment [12]; > 100 µM (inactive) in experiment [13]. The values for the GI50 in experiment [14], in experiment [15] and in [16] were > 100 µM (inactive), > 100 µM (inactive) and 75.2 µM (inactive), respectively.
As for `C=C(CN(C)C)C(=O)c1ccccc1Cl`, the GI50 in [1] was 19.9 µM (inactive); in [2] it was > 100 µM (inactive); in [3], 13.9 µM (inactive); in [4], > 52.1 µM (inactive); in [5], 5.5 µM (inactive); in [6] it was 19.1 µM (inactive). In addition, the GI50 in experiment [7] is > 47.8 µM (inactive); in [8] it was 12.5 µM (inactive); in experiment [9], 18.3 µM (inactive); in [10] it was 18.3 µM (inactive); in experiment [11], 17.7 µM (inactive); in experiment [12], 21.9 µM (inactive). For the same molecule, the GI50 was 24.4 µM (inactive) in [13], 20.9 µM (inactive) in experiment [14], 30.4 µM (inactive) in [15] and 18.9 µM (inactive) in experiment [16].
In the case of `CC/C=C/c1cc2cc[nH]c2c2c1C(C)C[C@@H]2C` (stereo not given in full), the GI50 was 18.9 µM (inactive) in experiment [1]; 35.9 µM (inactive) in experiment [2]; 18.2 µM (inactive) in experiment [3]; 43.2 µM (inactive) in [4]; 26.7 µM (inactive) in [5]; 28.6 µM (inactive) in [6]. Further, the GI50 in [7] is 19.8 µM (inactive); in [8], 18.3 µM (inactive); in experiment [9] it was 27.5 µM (inactive); in [10], 26.1 µM (inactive); in [11], 21.6 µM (inactive); in [13] it was 21.8 µM (inactive). Also, the figures for the GI50 in experiment [14], in experiment [15] and in experiment [16] were 18.9 µM (inactive), 24.9 µM (inactive) and 24.9 µM (inactive), respectively.
On to `N[C@@H](Cc1ccc(N(CCCl)CCCl)cc1)C(=O)O` [MELPHALAN HYDROCHLORIDE], for which the GI50 was 17.4 µM (inactive) in experiment [1]; 28.7 µM (inactive) in experiment [2]; 43.3 µM (inactive) in experiment [3]; 2.51 µM (inactive) in [5]; 75.3 µM (inactive) in experiment [6]; 71.1 µM (inactive) in experiment [7]. The GI50 is 49.3 µM (inactive) in experiment [8]; 39.6 µM (inactive) in experiment [9]; 48.6 µM (inactive) in experiment [17]; 41.9 µM (inactive) in experiment [18]; 35.2 µM (inactive) in [10]; 44 µM (inactive) in experiment [11]. Moreover, the GI50 in [12] was 19.9 µM (inactive); in [13], 16.6 µM (inactive); in experiment [14], 14.5 µM (inactive); in experiment [15] it was 55.5 µM (inactive); in [19] it was 14.1 µM (inactive); in experiment [16] it was 48 µM (inactive).

Source of the values: ChEMBL document CHEMBL1201862, “PubChem BioAssay data set” (2004).
